Test results: patent US20250000843A1, “LIGNAN-INSPIRED COMPOUNDS, METHODS OF MAKING, AND USING THEREOF” (IOWAIBO, INC., priority 2023, published 2025)

What was measured:
[1] = test system: MCF7 (human breast cancer cell line); assay: MTT toxicity assay in MCF7 breast cancer cells; assay type: cell-based
Protocol: Toxicity of the dibenzyl butyl lactone derivative (3-[(3,4-dimethoxyphenyl)cyclopentyl], 4-[(3-hydroxyphenol)methyl]oxolan-2-one) in breast cancer cells was evaluated using MTT assay. The MTT toxicity test is a colorimetric assay to measure cells' metabolic activity by serving as a substrate of cellular enzymes that reduce the tetrazolium orange dye, MTT (3-(4,5-Dimethylthiazol-2-yl)-2,5-diphenyltetrazolium bromide) to its insoluble, formazan, giving a purple color. The rate of conversion is directly proportional to cells' mitochondrial metabolic activity via NAD (P) H-dependent cellular oxidoreductase enzymes and serves as a surrogate marker of cell viability.
Cultures of MCF7 (human breast cancer cell line) working stock (5 passages) were established under standard culture conditions in Eagle's minimum essential medium (EMEM). EMEM was supplemented with 10% fetal bovine serum (FBS), 2 mM Glutamine and Pen/Strep, and Penicillin 0.01 mg/ml.
Cells previously expanded were seeded in 96 well plates at 1.9×10^5 and 9.6×10^4 cells/plate for 24- and 72-hours treatment respectively. This concentration is known to show the best window for the MTT assay, with better sensitivity and low variability.
5 mg of powdered enterolactone, dibenzyl butyl lactone derivative enantiomer A, and dibenzyl butyl lactone derivative enantiomer B were dissolved in 500 μl of DMSO at room temperature. Eight-point curves, ⅓ dilutions (highest concentration 125 μM), were prepared.
Twenty-four hours following the seeding process, the cells were washed once with phosphate buffered saline (PBS) and treated with the respective compounds in cell culture media. Each condition was tested in triplicates. For positive and negative controls, 8 mM methyl methane sulfonate (MMS) and DMSO 100% were used respectively.
Following compound addition, the plates were incubated for 24 and 72 hours. After the treatment period, cells were washed twice with PBS and media was replaced with MTT reagent at 0.5 mg/ml in Dulbecco's modified Eagle medium (DMEM) without phenol red. The plates were gently shaken and incubated for 4 hours. After the incubation the medium was removed and replaced by DMSO. The plates were gently shaken to solubilize the formazan crystals. Absorbance was measured using an Envision multiplate reader at a wavelength of 570 nm.
Eight serial dilutions were prepared (125.00, 41.67, 13.89, 4.63, 1.54, 0.51, 0.17 and 0.06 µM to evaluate the compounds (in triplicate). MTT results showing cell death values above 20% are considered as having a significant toxic effect.
MTT assay results are shown in Tables 2-7 and expressed as the percentage of cell death after treatment.

[2] = test system: human induced pluripotent stem (iPS) cells; assay type: cell-based; settings: human
Protocol: The dibenzyl butyl lactone derivative enantiomer A and B were compared to enterolactone and tested to determine toxicity using a human pluripotent stem (hPS) cell-based assay that predicts the developmental toxicity potential. […] The current study was conducted using human induced pluripotent stem (iPS) cells.
The impact of test article exposure on ornithine and cystine metabolism in human induced pluripotent stem (iPS) cells was measured for three test articles (dibenzyl butyl lactone derivative enantiomer A, dibenzyl butyl lactone derivative enantiomer B, and enterolactone) and prediction of the potential for developmental toxicity was made through application of the hPS cell-based assay. Exposure spanned a range of eight treatment levels per test article ranging from 0.03-100 μM.
The observed decrease in the o/c ratio following exposure to each test article is indicative of the potential for developmental toxicity and/or embryo lethality in vivo at or above the dTP concentration. FIGS. 15A-C show the o/c ratio of dibenzyl butyl lactone derivative enantiomer A (FIG. 15A), dibenzyl butyl lactone derivative enantiomer B (FIG. 15B), and (+/−) enterolactone (FIG. 15C). The graphs in FIGS. 15A-C show the cell viability and o/c/ ratio over concentrations of 0.03-100 μM with the straight horizontal line illustrating the developmental toxicity threshold of 0.85.

Compound: O=C1OCC(Cc2ccc3c(c2)OCO3)/C1=C\c1cccc(O)c1 (single isomer, unassigned) [Enantiomer A, 3-[(3,4-dimethoxyphenyl)cyclopentyl], 4-[(3-hydroxyphenol)methyl]oxolan-2-one]
- Cell death #1 (%) ([1]; MCF7, 24 hours, 0.06 μM): −25.82%
- Cell death #2 (%) ([1]; MCF7, 24 hours, 0.06 μM): −37.36%
- Cell death #3 (%) ([1]; MCF7, 24 hours, 0.06 μM): −35.43%
- Cell death (%) MEAN ([1]; MCF7, 24 hours, 0.06 μM): −32.87%
- Cell death #1 (%) ([1]; MCF7, 24 hours, 0.17 μM): −27.36%
- Cell death #2 (%) ([1]; MCF7, 24 hours, 0.17 μM): −44.28%
- Cell death #3 (%) ([1]; MCF7, 24 hours, 0.17 μM): −55.05%
- Cell death (%) MEAN ([1]; MCF7, 24 hours, 0.17 μM): −42.23%
- Cell death #1 (%) ([1]; MCF7, 24 hours, 0.51 μM): −57.74%
- Cell death #2 (%) ([1]; MCF7, 24 hours, 0.51 μM): −18.51%
- Cell death #3 (%) ([1]; MCF7, 24 hours, 0.51 μM): −45.82%
- Cell death (%) MEAN ([1]; MCF7, 24 hours, 0.51 μM): −40.69%
- Cell death #1 (%) ([1]; MCF7, 24 hours, 1.54 μM): −48.89%
- Cell death #2 (%) ([1]; MCF7, 24 hours, 1.54 μM): −51.59%
- Cell death #3 (%) ([1]; MCF7, 24 hours, 1.54 μM): −43.51%
- Cell death (%) MEAN ([1]; MCF7, 24 hours, 1.54 μM): −48.00%
- Cell death #1 (%) ([1]; MCF7, 24 hours, 4.63 μM): −58.89%
- Cell death #2 (%) ([1]; MCF7, 24 hours, 4.63 μM): −57.74%
- Cell death #3 (%) ([1]; MCF7, 24 hours, 4.63 μM): −34.66%
- Cell death (%) MEAN ([1]; MCF7, 24 hours, 4.63 μM): −50.43%
- Cell death #1 (%) ([1]; MCF7, 24 hours, 13.89 μM): −61.20%
- Cell death #2 (%) ([1]; MCF7, 24 hours, 13.89 μM): −35.05%
- Cell death #3 (%) ([1]; MCF7, 24 hours, 13.89 μM): −25.05%
- Cell death (%) MEAN ([1]; MCF7, 24 hours, 13.89 μM): −40.43%
- Cell death #1 (%) ([1]; MCF7, 24 hours, 41.67 μM): −83.51%
- Cell death #2 (%) ([1]; MCF7, 24 hours, 41.67 μM): −78.89%
- Cell death #3 (%) ([1]; MCF7, 24 hours, 41.67 μM): −45.05%
- Cell death (%) MEAN ([1]; MCF7, 24 hours, 41.67 μM): −69.15%
- Cell death #1 (%) ([1]; MCF7, 24 hours, 125.00 μM): 98.41%
- Cell death #2 (%) ([1]; MCF7, 24 hours, 125.00 μM): 95.72%
- Cell death #3 (%) ([1]; MCF7, 24 hours, 125.00 μM): 100.72%
- Cell death (%) MEAN ([1]; MCF7, 24 hours, 125.00 μM): 98.29%
- Cell death #1 (%) ([1]; MCF7, 72 hours, 0.06 μM): −51.17%
- Cell death #2 (%) ([1]; MCF7, 72 hours, 0.06 μM): −29.40%
- Cell death #3 (%) ([1]; MCF7, 72 hours, 0.06 μM): −11.64%
- Cell death (%) MEAN ([1]; MCF7, 72 hours, 0.06 μM): −30.74%
- Cell death #1 (%) ([1]; MCF7, 72 hours, 0.17 μM): −56.87%
- Cell death #2 (%) ([1]; MCF7, 72 hours, 0.17 μM): −58.21%
- Cell death #3 (%) ([1]; MCF7, 72 hours, 0.17 μM): −50.17%
- Cell death (%) MEAN ([1]; MCF7, 72 hours, 0.17 μM): −55.08%
- Cell death #1 (%) ([1]; MCF7, 72 hours, 0.51 μM): −79.98%
- Cell death #2 (%) ([1]; MCF7, 72 hours, 0.51 μM): −51.84%
- Cell death #3 (%) ([1]; MCF7, 72 hours, 0.51 μM): −72.61%
- Cell death (%) MEAN ([1]; MCF7, 72 hours, 0.51 μM): −68.15%
- Cell death #1 (%) ([1]; MCF7, 72 hours, 1.54 μM): −57.87%
- Cell death #2 (%) ([1]; MCF7, 72 hours, 1.54 μM): −73.62%
- Cell death #3 (%) ([1]; MCF7, 72 hours, 1.54 μM): −58.88%
- Cell death (%) MEAN ([1]; MCF7, 72 hours, 1.54 μM): −63.46%
- Cell death #1 (%) ([1]; MCF7, 72 hours, 4.63 μM): −90.37%
- Cell death #2 (%) ([1]; MCF7, 72 hours, 4.63 μM): −113.15%
- Cell death #3 (%) ([1]; MCF7, 72 hours, 4.63 μM): −79.31%
- Cell death (%) MEAN ([1]; MCF7, 72 hours, 4.63 μM): −94.28%
- Cell death #1 (%) ([1]; MCF7, 72 hours, 13.89 μM): −43.13%
- Cell death #2 (%) ([1]; MCF7, 72 hours, 13.89 μM): −52.85%
- Cell death #3 (%) ([1]; MCF7, 72 hours, 13.89 μM): −46.15%
- Cell death (%) MEAN ([1]; MCF7, 72 hours, 13.89 μM): −47.38%
- Cell death #1 (%) ([1]; MCF7, 72 hours, 41.67 μM): 15.49%
- Cell death #2 (%) ([1]; MCF7, 72 hours, 41.67 μM): 4.10%
- Cell death #3 (%) ([1]; MCF7, 72 hours, 41.67 μM): 2.76%
- Cell death (%) MEAN ([1]; MCF7, 72 hours, 41.67 μM): 7.45%
- Cell death #1 (%) ([1]; MCF7, 72 hours, 125.00 μM): 99.92%
- Cell death #2 (%) ([1]; MCF7, 72 hours, 125.00 μM): 99.92%
- Cell death #3 (%) ([1]; MCF7, 72 hours, 125.00 μM): 99.58%
- Cell death (%) MEAN ([1]; MCF7, 72 hours, 125.00 μM): 99.80%
- breast cancer cell death as compared to enterolactone ([1]; MCF7, at higher concentrations, 24 hours and 72 hours post-treatment): increased breast cancer cell death as compared to enterolactone
- TP Concentration [2]: 34.8 µM
- TP concentration, fold lower than (+/−) enterolactone TP [2]: 4-6 fold
- dTP Concentration [2]: 21.4 µM
- dTP and TP concentrations compared with anti-cancer drugs tested in this assay [2]: higher than >90% of the anti-cancer drugs
- fold difference between dTP and TP [2]: ≤ 3 fold
- similarity of dTP concentrations between all three compounds [2]: ≤ 2 fold
